# Read-outs that look alike come from different tables or passages of the source.
# Key:
# [1] = molecular target: T1, Staphylococcus aureus Topo IV (Staphylococcus aureus, UniProt P0C1S7+P0C1U9); experiment: Staphylococcus aureus Topo IV decatenation assay; type: biochemical
# T1 construct: purchased Inspiralis, Norwich, UK
# Description: (§1) A subset of analogs was used to assess the degree of inhibition of DNA gyrase or TopoIV (Inspiralis, Norwich, UK), both to establish the mechanism of action and to evaluate the relative balance of inhibitory activities (Table 1). A subset of compound was also assayed to determine the degree of inhibition of human topoisomerase II (Inspiralis, Norwich, UK)).
# (§2) In all experiments, the activity of the enzymes was determined prior to the testing of the compounds and 1 unit (U) was defined as the amount of enzyme required to just fully supercoil, relax or decatenate the substrate (see explanation of gels). This amount of enzyme was initially used in determination of control inhibitor activity. These experiments were performed in duplicate.
# (§3) For all assays the final DMSO concentration was 1%. 10 mM stocks of the compounds were serially diluted into 10% DMSO at 1 mM, 0.5 mM, 0.25 mM, 0.1 mM, 0.05 mM, 0.01 mM, 0.005 mM, 0.001 mM, 0.0005 mM, 0.0001 mM and 0.00005 mM. 3.0 μl of each dilution was added to a 30 μl assay.
# (§4) Bands were visualised by ethidium staining for 20 minutes and destaining for 20 minutes. Gels were scanned using documentation equipment (GeneGenius, Syngene, Cambridge, UK) and % inhibition levels (where appropriate) were obtained with gel scanning software. (GeneTools, Syngene, Cambridge, UK)
# Staphylococcus aureus Topo IV Decatenation Assay
# 1 U of Topo IV was incubated with 200 ng kDNA DNA in a 30 μl reaction at 37° C. for 30 minutes under the following conditions: 50 mM Tris.HCl (7.5), 5 mM MgCl2, 5 mM DTT, 1.5 mM ATP, 350 mM potassium glutamate and 0.05 mg/ml BSA.
# Each reaction was stopped by the addition of 30 μl chloroform/iso-amyl alcohol (26:1) and 30 μl Stop Dye, before being loaded on a 1.0% TAE gel run at 70V for 2 hours.
# [2] = test system: USA 300 strain of MRSA; experiment: MIC by broth microdilution, USA 300 strain of MRSA; type: cell-based, Staphylococcus aureus; conditions: multiple values when multiple MIC assays were conducted; for MIC: Staphylococcus aureus, read-out: MIC USA300
# Description: Minimum inhibitory concentrations were determined using the quality control strain S. aureus ATCC 29213 (Table 1) by the broth microdilution method according to guidelines of the Clinical and Laboratory Standards Institute (CLSI) (Cockerill, F. R.; et al., 2012, Methods for dilution antimicrobial susceptibility tests for bacteria that grow aerobically; approved standard-ninth edition. MA07-A9. Clinical and Laboratory Standard Institute, Wayne, Pa.). […] MICs for selected compounds were also determined using a USA 300 strain of MRSA (Hidron, et al., Lancet Infect. Dis. 2009, 9:384-392). Vancomycin was used as an additional control.
# [3] = molecular target: T2, human topo II (Homo sapiens, UniProt P11388); experiment: Topoisomerase II (alpha) decatenation assay; type: biochemical; conditions: activity remaining at 100 μM compound; read-out: hTopoll (% activity remaining at 100 μM)
# T2 construct: purchased Inspiralis, Norwich, UK
# Description: as §1, §2, §3, §4
# Topoisomerase II (Alpha) Decatenation Assay
# Each reaction was stopped by the addition of 30 μl chloroform/iso-amyl alcohol (26:1) and 30 μl Stop Dye, before being loaded on a 1.0% TAE gel run at 90V for 2 hours.
# [4] = molecular target: T3, Staphylococcus aureus gyrase (Staphylococcus aureus, UniProt P0A0K8+P20831); experiment: Staphylococcus aureus gyrase supercoiling assay; type: biochemical
# T3 construct: purchased Inspiralis, Norwich, UK
# Description: as §1, §2, §3, §4
# Staphylococcus aureus gyrase supercoiling
# 1 U of DNA gyrase was incubated with 0.5 μg of relaxed pBR322 DNA in a 30 μl reaction at 37° C. for 30 minutes under the following conditions: 40 mM HEPES. KOH (pH 7.6), 10 mM magnesium acetate, 10 mM DTT, 2 mM ATP, 500 mM potassium glutamate and 0.05 mg/ml BSA.
# Each reaction was stopped by the addition of 30 μl chloroform/iso-amyl alcohol (26:1) and 30 μl Stop Dye (40% sucrose (w/v), 100 mM Tris.HCl (pH 7.5), 10 mM EDTA, 0.5 μg/ml bromophenol blue), before being loaded on a 1.0% TAE gel run at 70V for 2 hours.
# [5] = test system: S. aureus ATCC 29213; experiment: MIC by broth microdilution (CLSI), quality control strain S. aureus ATCC 29213; type: cell-based, Staphylococcus aureus; conditions: multiple values when multiple MIC assays were conducted; for MIC 29213: S. aureus ATCC 29213; for MIC: Staphylococcus aureus, ATCC29213, S. aureus ATCC 29213
# Description: Minimum inhibitory concentrations were determined using the quality control strain S. aureus ATCC 29213 (Table 1) by the broth microdilution method according to guidelines of the Clinical and Laboratory Standards Institute (CLSI) (Cockerill, F. R.; et al., 2012, Methods for dilution antimicrobial susceptibility tests for bacteria that grow aerobically; approved standard-ninth edition. MA07-A9. Clinical and Laboratory Standard Institute, Wayne, Pa.). […] Published quality control ranges for gepotidacin and ciprofloxacin were used to validate each assay. MICs for selected compounds were also determined using a USA 300 strain of MRSA (Hidron, et al., Lancet Infect. Dis. 2009, 9:384-392). Vancomycin was used as an additional control.
# [6] = S. aureus DNA gyrase supercoiling, read-out: Gyrase IC50
# [7] = S. aureus Topo IV decatenation, read-out: TopolV Decat IC50
# T2 sequence (P11388 whole entry): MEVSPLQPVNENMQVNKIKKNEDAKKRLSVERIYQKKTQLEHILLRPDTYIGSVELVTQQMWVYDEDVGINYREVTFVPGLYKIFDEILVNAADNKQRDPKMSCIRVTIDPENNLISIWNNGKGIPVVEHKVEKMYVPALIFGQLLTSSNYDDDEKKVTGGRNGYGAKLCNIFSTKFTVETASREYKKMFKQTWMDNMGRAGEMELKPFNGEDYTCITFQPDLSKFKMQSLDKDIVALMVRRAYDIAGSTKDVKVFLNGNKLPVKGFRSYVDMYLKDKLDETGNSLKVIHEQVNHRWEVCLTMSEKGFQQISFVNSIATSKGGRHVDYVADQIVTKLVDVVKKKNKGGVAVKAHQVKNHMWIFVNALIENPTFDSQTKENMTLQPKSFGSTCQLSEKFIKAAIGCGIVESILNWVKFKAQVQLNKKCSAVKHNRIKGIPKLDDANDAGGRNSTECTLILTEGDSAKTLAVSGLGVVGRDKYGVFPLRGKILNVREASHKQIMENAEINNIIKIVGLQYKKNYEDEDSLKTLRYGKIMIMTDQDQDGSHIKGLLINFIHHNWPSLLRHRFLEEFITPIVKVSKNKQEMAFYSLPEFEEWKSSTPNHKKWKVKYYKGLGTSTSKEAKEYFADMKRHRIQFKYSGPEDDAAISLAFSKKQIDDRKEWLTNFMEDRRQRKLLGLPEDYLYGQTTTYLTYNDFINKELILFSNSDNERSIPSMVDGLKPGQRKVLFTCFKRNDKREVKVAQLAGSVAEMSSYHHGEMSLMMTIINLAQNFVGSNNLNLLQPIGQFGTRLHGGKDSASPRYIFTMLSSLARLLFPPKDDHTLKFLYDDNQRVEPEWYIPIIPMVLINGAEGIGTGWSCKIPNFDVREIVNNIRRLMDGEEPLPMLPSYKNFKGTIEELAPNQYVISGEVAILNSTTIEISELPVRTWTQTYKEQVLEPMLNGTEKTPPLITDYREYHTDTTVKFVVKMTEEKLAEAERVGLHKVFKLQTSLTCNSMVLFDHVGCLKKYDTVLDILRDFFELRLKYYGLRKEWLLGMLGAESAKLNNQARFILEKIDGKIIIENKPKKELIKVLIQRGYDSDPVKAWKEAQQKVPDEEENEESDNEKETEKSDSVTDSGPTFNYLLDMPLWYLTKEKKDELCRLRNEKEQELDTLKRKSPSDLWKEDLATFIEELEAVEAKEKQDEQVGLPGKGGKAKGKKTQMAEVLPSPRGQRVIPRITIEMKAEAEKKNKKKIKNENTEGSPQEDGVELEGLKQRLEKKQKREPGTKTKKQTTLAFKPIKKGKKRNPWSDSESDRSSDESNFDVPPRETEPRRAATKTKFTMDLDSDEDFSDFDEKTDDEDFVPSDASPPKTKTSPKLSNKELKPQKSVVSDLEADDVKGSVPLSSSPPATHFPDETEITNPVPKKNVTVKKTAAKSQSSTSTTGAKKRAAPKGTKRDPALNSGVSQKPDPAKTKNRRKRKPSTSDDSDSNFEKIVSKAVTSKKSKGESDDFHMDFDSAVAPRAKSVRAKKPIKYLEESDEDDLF
# T1 sequence (P0C1S7 whole entry): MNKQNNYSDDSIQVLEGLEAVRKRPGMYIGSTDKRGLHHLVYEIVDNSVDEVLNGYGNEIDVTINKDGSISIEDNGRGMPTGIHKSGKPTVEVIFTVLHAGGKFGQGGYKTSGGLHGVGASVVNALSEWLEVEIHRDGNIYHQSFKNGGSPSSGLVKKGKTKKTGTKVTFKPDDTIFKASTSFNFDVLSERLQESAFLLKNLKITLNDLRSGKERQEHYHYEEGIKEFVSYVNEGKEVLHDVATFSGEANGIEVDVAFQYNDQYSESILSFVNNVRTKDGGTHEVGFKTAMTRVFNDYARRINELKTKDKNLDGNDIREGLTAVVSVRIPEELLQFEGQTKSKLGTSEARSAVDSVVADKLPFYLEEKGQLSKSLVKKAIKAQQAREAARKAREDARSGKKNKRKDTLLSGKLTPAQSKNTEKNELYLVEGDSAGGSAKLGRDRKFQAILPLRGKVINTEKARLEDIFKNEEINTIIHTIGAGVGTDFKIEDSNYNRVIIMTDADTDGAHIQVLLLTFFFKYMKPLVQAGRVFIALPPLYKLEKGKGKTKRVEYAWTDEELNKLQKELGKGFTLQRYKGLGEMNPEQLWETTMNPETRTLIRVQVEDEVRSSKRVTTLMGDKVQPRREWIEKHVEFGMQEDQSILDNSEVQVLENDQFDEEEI
# T1 sequence (P0C1U9 whole entry): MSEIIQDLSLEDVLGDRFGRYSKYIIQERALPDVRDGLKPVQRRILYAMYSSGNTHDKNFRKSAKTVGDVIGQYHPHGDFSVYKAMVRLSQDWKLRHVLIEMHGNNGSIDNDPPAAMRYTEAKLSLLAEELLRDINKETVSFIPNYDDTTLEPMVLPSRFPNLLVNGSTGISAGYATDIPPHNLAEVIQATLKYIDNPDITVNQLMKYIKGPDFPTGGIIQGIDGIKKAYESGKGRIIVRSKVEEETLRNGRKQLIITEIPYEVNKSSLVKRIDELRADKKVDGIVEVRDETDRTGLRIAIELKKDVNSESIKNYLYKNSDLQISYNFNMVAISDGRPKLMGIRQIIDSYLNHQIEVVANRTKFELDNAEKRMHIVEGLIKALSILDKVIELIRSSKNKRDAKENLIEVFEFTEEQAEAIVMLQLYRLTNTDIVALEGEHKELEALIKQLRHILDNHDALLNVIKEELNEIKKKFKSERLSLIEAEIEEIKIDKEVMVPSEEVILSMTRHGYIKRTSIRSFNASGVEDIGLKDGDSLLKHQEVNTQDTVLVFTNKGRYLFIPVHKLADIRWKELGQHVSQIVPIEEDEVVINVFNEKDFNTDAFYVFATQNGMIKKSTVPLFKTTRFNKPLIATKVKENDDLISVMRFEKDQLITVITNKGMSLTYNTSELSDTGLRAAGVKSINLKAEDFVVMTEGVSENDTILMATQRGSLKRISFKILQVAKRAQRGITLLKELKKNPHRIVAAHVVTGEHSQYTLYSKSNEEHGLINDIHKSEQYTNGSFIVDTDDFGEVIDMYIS
# T3 sequence (P20831 whole entry): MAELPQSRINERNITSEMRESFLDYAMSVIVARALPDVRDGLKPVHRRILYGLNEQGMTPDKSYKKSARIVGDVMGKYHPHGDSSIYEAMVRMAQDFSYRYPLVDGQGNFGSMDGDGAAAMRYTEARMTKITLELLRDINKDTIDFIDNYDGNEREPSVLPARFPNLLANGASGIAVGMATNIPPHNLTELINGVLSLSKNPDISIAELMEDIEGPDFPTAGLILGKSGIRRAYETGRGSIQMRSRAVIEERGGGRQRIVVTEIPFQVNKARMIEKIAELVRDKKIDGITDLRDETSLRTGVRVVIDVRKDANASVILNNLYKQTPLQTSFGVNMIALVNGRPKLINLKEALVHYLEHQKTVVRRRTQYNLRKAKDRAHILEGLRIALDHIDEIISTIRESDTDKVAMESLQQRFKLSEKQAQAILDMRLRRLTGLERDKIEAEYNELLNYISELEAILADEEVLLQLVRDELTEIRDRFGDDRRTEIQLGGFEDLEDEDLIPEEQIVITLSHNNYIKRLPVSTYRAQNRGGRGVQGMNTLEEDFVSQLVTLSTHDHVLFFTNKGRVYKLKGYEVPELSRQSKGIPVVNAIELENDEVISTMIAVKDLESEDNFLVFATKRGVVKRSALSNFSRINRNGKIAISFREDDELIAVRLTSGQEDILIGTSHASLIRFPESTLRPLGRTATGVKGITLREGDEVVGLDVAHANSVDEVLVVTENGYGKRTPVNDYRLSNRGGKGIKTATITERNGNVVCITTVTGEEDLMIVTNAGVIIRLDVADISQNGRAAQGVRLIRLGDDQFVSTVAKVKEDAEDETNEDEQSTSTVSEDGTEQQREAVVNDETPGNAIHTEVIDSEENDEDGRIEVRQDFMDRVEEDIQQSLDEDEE
# T3 sequence (P0A0K8 whole entry): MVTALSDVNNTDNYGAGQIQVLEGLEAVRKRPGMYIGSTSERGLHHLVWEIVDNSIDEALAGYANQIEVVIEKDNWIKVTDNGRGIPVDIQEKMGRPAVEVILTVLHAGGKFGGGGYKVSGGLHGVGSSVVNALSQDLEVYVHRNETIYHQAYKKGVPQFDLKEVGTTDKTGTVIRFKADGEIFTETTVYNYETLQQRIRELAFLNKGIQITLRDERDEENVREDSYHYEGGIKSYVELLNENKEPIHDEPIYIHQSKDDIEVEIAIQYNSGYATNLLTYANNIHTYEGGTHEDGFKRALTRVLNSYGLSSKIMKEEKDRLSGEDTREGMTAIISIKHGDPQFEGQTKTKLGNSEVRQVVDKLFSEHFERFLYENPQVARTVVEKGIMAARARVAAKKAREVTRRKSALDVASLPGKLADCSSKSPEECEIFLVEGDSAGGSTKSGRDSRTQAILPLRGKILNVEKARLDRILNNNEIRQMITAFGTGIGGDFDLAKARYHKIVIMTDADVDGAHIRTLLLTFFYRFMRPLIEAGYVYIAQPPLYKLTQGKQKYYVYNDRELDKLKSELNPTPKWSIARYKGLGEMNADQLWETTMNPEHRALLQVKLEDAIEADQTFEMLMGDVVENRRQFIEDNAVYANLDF
Compound,IC50 [1],MIC [2],remaining activity at 100 µM [3],"IC50 [4, 6]","IC50 [1, 7]",MIC 29213 [5],MIC [5],IC50 [4],MIC USA300 [2]
"COc1ccc2nccc(CC[C@H]3OC[C@H](NCc4ccc5c(c4)OCCO5)CO3)c2c1 [AB-0011, N-((2,3-dihydrobenzo[b][1,4]dioxin-6-yl)methyl)-2-(2-(6-methoxyquinolin-4-yl)ethyl)-trans-1,3-dioxan-5-amine]",13800 nM,0.5 µg/mL,84.2%,100 nM,,,,,
"COc1ccc2nccc(CC[C@H]3OC[C@H](NCc4ccc(Cl)c(Cl)c4)CO3)c2c1 [AB-0012, N-(3,4-dichlorobenzyl)-2-(2-(6-methoxyquinolin-4-yl)ethyl)-trans-1,3-dioxan-5-amine]",,0.5 µg/mL,93.2%,280 nM,> 100000 nM,,,,
"COc1ccc2nccc(CC[C@H]3OC[C@H](NCc4cc5c(cn4)OCCO5)CO3)c2c1 [AB-0013, N-((2,3-dihydro-[1,4]dioxino[2,3-c]pyridin-7-yl)methyl)-2-(2-(6-methoxyquinolin-4-yl)ethyl)-trans-1,3-dioxan-5-amine]",,2 µg/mL,95.1%,360 nM,50000 nM,2 µg/mL,1 µg/mL,,
"COc1ccc2nccc(CC[C@H]3OC[C@H](NCc4cc5c(cn4)OCCC5)CO3)c2c1 [AB-0014, N-((3,4-dihydro-2H-pyrano[2,3-c]pyridin-6-yl)methyl)-2-(2-(6-methoxyquinolin-4-yl)ethyl)-trans-1,3-dioxan-5-amine]",,2 µg/mL,93.8%,330 nM,25000 to 50000 nM,,1 µg/mL,,
"COc1ccc2ncc(F)c(CC[C@H]3OC[C@H](NCc4ccc5c(c4)OCCO5)CO3)c2n1 [AB-0015, N-((2,3-dihydrobenzo[b][1,4]dioxin-6-yl)methyl)-2-(2-(3-fluoro-6-methoxy-1,5-naphthyridin-4-yl)ethyl)-trans-1,3-dioxan-5-amine]",980 nM,0.125 µg/mL,55%,,,,≤ 0.25 µg/mL,30 nM,
"COc1ccc2ncc(F)c(C(O)C[C@H]3OC[C@H](NCc4ccc5c(c4)OCCO5)CO3)c2c1 (stereo partly drawn) [AB-0016, 2-(5-(((2,3-dihydrobenzo[b][1,4]dioxin-6-yl)methyl)amino)-trans-1,3-dioxan-2-yl)-1-(3-fluoro-6-methoxyquinolin-4-yl)ethan-1-ol]",7980 nM,0.25 µg/mL,77.4%,,,,0.125 µg/mL,90 nM,0.25 µg/mL
COc1ccc2ncc(F)c(CC[C@H]3OC[C@H](NCc4cc5c(cn4)OCCC5)CO3)c2n1 [AB-0018],,0.25 µg/mL,79.8%,160 nM,5330 nM,,≤ 0.25 µg/mL,,
"COc1ccc2ncc(F)c(C(O)C[C@H]3OC[C@H](NCc4cc5c(cn4)OCCC5)CO3)c2c1 (stereo partly drawn) [AB-0020, 2-(5-(((3,4-dihydro-2H-pyrano[2,3-c]pyridin-6-yl)methyl)amino)-trans-1,3-dioxan-2-yl)-1-(3-fluoro-6-methoxyquinolin-4-yl)ethan-1-ol]",,1 µg/mL,92.9%,130 nM,15200 nM,,0.5 µg/mL,,
"COc1ccc2nccc(CC[C@H]3OC[C@H](NCc4ccc5c(n4)NC(=O)CS5)CO3)c2c1 [AB-0021, 6-(((2-(2-(6-methoxyquinolin-4-yl)ethyl)-trans-1,3-dioxan-5-yl)amino)methyl)-2H-pyrido[3,2-b][1,4]thiazin-3(4H)-one]",,0.5 µg/mL,91.1%,590 nM,> 100000 nM,,0.5 µg/mL,,
"COc1ccc2nccc(CC[C@H]3OC[C@H](NCc4ccc(Cl)c(F)c4)CO3)c2c1 [AB-0030, N-(4-chloro-3-fluorobenzyl)-2-(2-(6-methoxyquinolin-4-yl)ethyl)-trans-1,3-dioxan-5-amine]",,1 µg/mL,97.8%,950 nM,> 100000 nM,,2 µg/mL,,
COc1ccc2nccc(CC[C@H]3OC[C@H](NC/C=C/c4ccccc4)CO3)c2c1 [AB-0051],,1 µg/mL,93.7%,420 nM,50000 to 100000 nM,,1 µg/mL,,
"COc1ccc2nccc(CC[C@H]3OC[C@H](NCc4ccc(Cl)cc4)CO3)c2c1 [AB-0052, N-(4-chlorobenzyl)-2-(2-(6-methoxyquinolin-4-yl)ethyl)-trans-1,3-dioxan-5-amine]",,4 µg/mL,97.8%,1160 nM,> 100000 nM,,1 µg/mL,,
"COc1ccc2nccc(CC[C@H]3OC[C@H](NCc4ccc5c(n4)NC(=O)CO5)CO3)c2c1 [AB-0055, 6-(((2-(2-(6-methoxyquinolin-4-yl)ethyl)-trans-1,3-dioxan-5-yl)amino)methyl)-2H-pyrido[3,2-b][1,4]oxazin-3(4H)-one]",,1 µg/mL,99.1%,780 nM,> 100000 nM,,0.5 µg/mL,,
"COc1ccc2nccc(CC[C@H]3OC[C@H](NCc4ccc5c(c4)NC(=O)CO5)CO3)c2c1 [AB-0057, 6-(((2-(2-(6-methoxyquinolin-4-yl)ethyl)-trans-1,3-dioxan-5-yl)amino)methyl)-2H-benzo[b][1,4]oxazin-3(4H)-one]",,1 µg/mL,93%,740 nM,> 100000 nM,2 µg/mL,1 µg/mL,,
